Experimental data as given in ChEMBL document CHEMBL6096696, “Structure-Activity Relationship Studies of an Autophagy Inhibitor That Targets the ATG14L-Beclin1 Protein-Protein Interaction Reveal Modifications That Improve Potency and Solubility and Maintain Selectivity” (J Med Chem, 2025).
≈ marks a conversion by molar mass, not a printed value. Calls of active or inactive are those of the source. The calls are words filed in the database; no cut-off is given here.

How the values were obtained:
[1] = Selectivity ratio of inhibition of C-terminal Nano-luc tagged UVRAG/C-terminal Halo-tagged Beclin 1 (unknown origin) PPI tranfected with HEK293T cells to inhibition of C-terminal Nano-luc tagged ATG14L/C-terminal Halo-tagged Beclin 1 (unknown origin) PPI tranfected with HEK293T cells
[2] = tested on: HEK293T; assay: Inhibition of C-terminal Nano-luc tagged ATG14L/C-terminal Halo-tagged Beclin 1 (unknown origin) PPI tranfected with HEK293T cells using […] at 100 uM incubated for 24 hrs by […] assay relative to control; type: cell-based; conditions: Homo sapiens, values are per cent of control
[3] = tested on: HeLa; assay: Cytotoxicity against human HeLa cells expressing eGFP-LC3 at 100 uM; type: functional, cell-based
[4] = tested on: HEK293T; assay: Inhibition of C-terminal Nano-luc tagged UVRAG/C-terminal Halo-tagged Beclin 1 (unknown origin) PPI tranfected with HEK293T cells using […] at 100 uM incubated for 24 hrs by […] assay relative to control; type: cell-based; conditions: Homo sapiens, values are per cent of control
[5] = Kinetic aqueous solubility of compound in PBS at pH 7.4 by absorbance based analysis; type: physicochemical; conditions: read-out: Kinetic_solubility
[6] = tested on: HeLa; assay: Inhibition of autophagy in human HeLa cells expressing eGFP-LC3 at 50 uM preincubated for 20 hrs followed by chloroquine addition and measured after 4 hrs by Hoechst 33342 staining based automated fluorescence microscopy analysis; type: functional, cell-based; conditions: time 24.0 hrs
[7] = Inhibition of C-terminal Nano-luc tagged ATG14L/C-terminal Halo-tagged Beclin 1 (unknown origin) PPI tranfected with HEK293T cells using […] incubated for 24 hrs by […] assay; type: cell-based, Homo sapiens
[8] = tested on: A549; assay: Inhibition of autophagy in human A549 cells assessed as increase in fluorescence at 100 uM preincubated with DQ-BSA for 1 hr followed by compound addition and measured after 4 hrs by Hoechst 33342 staining based automated fluorescence microscopy analysis; type: functional, cell-based

SMILES	Selectivity ratio [1]	residual binding, % of control [2] [%]	Activity [3]	residual binding, % of control [4] [%]	solubility kinetic [5] [µM]	inhibition [6]	IC50 [7] [µM]	inhibition [8]
Cc1c(Cl)cccc1-c1ccc2c(c1)N(Cc1noc(C3CCC3)n1)C(=O)CO2	1.5	79.7	Active; Compound Showed Less Cytotoxicity	120	> 100	–	–	–
Cc1cccc(-c2ccc3c(c2)N(Cc2noc(C4CCC4)n2)C(=O)CO3)c1C	1.3	73.1	Active; Compound Showed Less Cytotoxicity	95.3	> 100	Active	12.5	–
O=C1COc2ccc(-c3ccccc3C(F)(F)F)cc2N1Cc1noc(C2CCC2)n1	1.27	77.4	Active; Compound Showed Less Cytotoxicity	98	> 100	–	–	–
O=C1COc2ccc(-c3ccc(Cl)cc3Cl)cc2N1Cc1noc(C2CCC2)n1	1.17	89.7	Active	105	> 100	inactive	–	–
O=C1COc2ccc(-c3cccc(Cl)c3Cl)cc2N1Cc1noc(C2CCC2)n1	1.17	86.8	Active; Compound Showed Less Cytotoxicity	101	> 100	–	–	–
CCCN1C(=O)COc2ccc(-c3ccccc3C)cc21	1.3	65	Active	84.6	> 100	–	42.4	Active
Cc1cccc(-c2ccc3c(c2)N(Cc2noc(C4CCC4)n2)C(=O)CO3)c1Cl	1.45	80.5	Active; Compound Showed Less Cytotoxicity	117	> 100	–	–	–
O=C1COc2ccc(-c3cccc(Cl)c3)cc2N1Cc1noc(C2CCC2)n1	1.32	85.1	Active	116	> 100	inactive	–	–
CCCN1C(=O)COc2ccc(-c3cccc(OC(F)(F)F)c3)cc21	1.22	75.3	Active	92.4	> 100	–	24.3	Active
O=C1COc2ccc(-c3ccc(F)cc3F)cc2N1Cc1noc(C2CCC2)n1	1.14	87.9	–	100	> 100	–	–	–
O=C1COc2ccc(-c3ccccc3O)cc2N1Cc1noc(C2CCC2)n1	1.15	94.9	–	109	> 100	–	–	–
O=C1COc2ccc(Nc3ccccc3F)cc2N1Cc1noc(C2CCC2)n1	1.23	82	–	101	> 100	–	–	–
CC(C)c1cccc(Nc2ccc3c(c2)N(Cc2noc(C4CCC4)n2)C(=O)CO3)c1	1.18	88.7	–	105	> 100	–	–	–
O=C1COc2ccc(-c3ccccc3Cl)cc2N1Cc1noc(C2CCC2)n1	1.17	89.9	Active; Compound Showed Less Cytotoxicity	106	> 100	–	–	–
CCCN1C(=O)COc2ccc(-c3ccc(Cl)cc3Cl)cc21	1.25	65.8	Active	82.6	> 100	–	28.8	Active
O=C1COc2ccc(Nc3cccc(Cl)c3Cl)cc2N1Cc1noc(C2CCC2)n1	1.25	86.2	–	108	25 (≈ 11.1 µg/mL)	–	–	–
CC(C)c1ccccc1-c1ccc2c(c1)N(Cc1noc(C3CCC3)n1)C(=O)CO2	1.29	71.6	Active; Compound Showed Less Cytotoxicity	92.9	> 100	–	–	–
CCCN1C(=O)COc2ccc(-c3ccccc3)cc21	1.51	63.2	Active	95.7	> 100	–	56.6	Active
Cc1cccc(NS(=O)(=O)c2ccc3c(c2)N(Cc2noc(C4CCC4)n2)C(=O)CO3)c1C	–	60.6	–	–	50 (≈ 23.4 µg/mL)	–	33.9	–
CCCN1C(=O)COc2ccc(-c3ccncc3)cc21	1.03	106	Active	108	> 100	–	–	–
CCCN1C(=O)COc2ccc(-c3cccc(C)c3)cc21	1.59	57.3	Active	91.5	> 100	–	42	Active
CCCN1C(=O)COc2ccc(-c3ccccc3O)cc21	1.26	82.5	Active	104	> 100	–	–	–
CCCN1C(=O)COc2ccc(-c3ccc(F)cc3F)cc21	1.32	63.8	Active	84.2	> 100	–	–	–
O=C1COc2ccc(Nc3ccc(Cl)cc3Cl)cc2N1Cc1noc(C2CCC2)n1	1.29	79.1	–	102	50 (≈ 22.3 µg/mL)	–	–	–
O=C1COc2ccc(Nc3ccccc3Cl)cc2N1Cc1noc(C2CCC2)n1	1.11	93.6	–	104	> 100	–	–	–
CC(C)c1ccccc1Nc1ccc2c(c1)N(Cc1noc(C3CCC3)n1)C(=O)CO2	1.27	82.4	–	105	> 100	–	–	–
Cc1cccc(Nc2ccc3c(c2)N(Cc2noc(C4CCC4)n2)C(=O)CO3)c1Cl	1.13	89.8	–	102	100 (≈ 42.5 µg/mL)	–	–	–
CCCN1C(=O)COc2ccc(-c3ccccc3OC)cc21	1.26	79.5	Active	100	> 100	–	–	–
O=C1COc2ccc(-c3ccccc3F)cc2N1Cc1noc(C2CCC2)n1	1.24	79	–	98	> 100	–	–	–
